Data as given in patent US20240360091A1, “GLUN2B-SUBUNIT SELECTIVE ANTAGONISTS OF THE N-METHYL-D-ASPARTATE RECEPTORS WITH ENHANCED POTENCY AT ACIDIC PH” (Emory University, priority 2021, published 2024).
Like-named read-outs stand apart in the source and are kept apart here.

Legend:
human GluN1/GluN2B = human GluN1/GluN2B (Homo sapiens (Human), UniProt Q05586+Q13224); assay: Two electrode voltage-clamp recordings from Xenopus laevis oocytes, GluN2B potency and pH dependence; type: cell-based
Method: Two Electrode Voltage-Clamp Recordings from Xenopus laevis Oocytes
Stage V-VI Xenopus laevis unfertilized oocytes were purchased from Ecocyte (Austin, Texas) and injected with 5 ng of GluN1 and 10 ng of GluN2B cRNAs. The cDNAs for human GluN1 and GluN2B, encoding NCBI reference sequences NM_007327.3 and NM_000834.3, respectively, were linearized and cRNAs made as previously described (Traynelis et al., J Neurosci, 1998, 18(16):6163-75). After injection, the oocytes were incubated in Barth's culture solution (88 mM NaCl, 1 mM KCl, 2.4 mM NaHCO3, 10 mM HEPES, 0.82 mM MgSO4, 0.33 mM Ca(NO3)2, 0.41 mM CaCl2), 10 U/mL PenStrep, and 0.1 mg/mL gentamycin, pH 7.4) at 18° C. Two electrode voltage-clamp (TEVC) recordings were made at 22-23° C., 2-7 days after the injection, using Warner OC725C amplifiers (VHOLD=−40 mV). Briefly, the oocytes were perfused in a recording solution (90 mM NaCl, 1 mM KCl, 10 mM HEPES, 0.01 mM EDTA, and 0.5 mM BaCl2) adjusted to either pH 7.6 or 6.9 by addition of NaOH or HCl, respectively (pH 6.9 solutions were prepared by addition of HCl to pH 7.6 solutions to maintain an equal concentration of Na^+ ions in both solutions). Concentration-response curves of the compounds were obtained by application of increasing concentrations of each individual compound until steady state conditions were obtained, in the presence of saturating agonist concentrations (i.e., 100 μM glutamate and 30 μM glycine). In general, oocyte recordings were made from 4-10 oocytes per experiment (i.e., oocyte injection cycle) from ≥two experiments. The concentration-response relationship for each oocyte was fit by equation (1),
Percent Response=(100−minimum)/(1+([concentration]/IC50)^nH)+minimum (1)
where minimum is the residual response in saturating concentration of each individual compound (constrained to be ≥0), and IC50 is the concentration of compound that causes half-maximal inhibition, and nH is the Hill slope.

GluN2A = GluN2A (Homo sapiens (Human), UniProt Q12879); assay: Two electrode voltage-clamp recordings, single concentration, GluN2A; type: cell-based; conditions: pH 6.9
GluN2A, sequence (Q12879 23-1464, other chains not shown): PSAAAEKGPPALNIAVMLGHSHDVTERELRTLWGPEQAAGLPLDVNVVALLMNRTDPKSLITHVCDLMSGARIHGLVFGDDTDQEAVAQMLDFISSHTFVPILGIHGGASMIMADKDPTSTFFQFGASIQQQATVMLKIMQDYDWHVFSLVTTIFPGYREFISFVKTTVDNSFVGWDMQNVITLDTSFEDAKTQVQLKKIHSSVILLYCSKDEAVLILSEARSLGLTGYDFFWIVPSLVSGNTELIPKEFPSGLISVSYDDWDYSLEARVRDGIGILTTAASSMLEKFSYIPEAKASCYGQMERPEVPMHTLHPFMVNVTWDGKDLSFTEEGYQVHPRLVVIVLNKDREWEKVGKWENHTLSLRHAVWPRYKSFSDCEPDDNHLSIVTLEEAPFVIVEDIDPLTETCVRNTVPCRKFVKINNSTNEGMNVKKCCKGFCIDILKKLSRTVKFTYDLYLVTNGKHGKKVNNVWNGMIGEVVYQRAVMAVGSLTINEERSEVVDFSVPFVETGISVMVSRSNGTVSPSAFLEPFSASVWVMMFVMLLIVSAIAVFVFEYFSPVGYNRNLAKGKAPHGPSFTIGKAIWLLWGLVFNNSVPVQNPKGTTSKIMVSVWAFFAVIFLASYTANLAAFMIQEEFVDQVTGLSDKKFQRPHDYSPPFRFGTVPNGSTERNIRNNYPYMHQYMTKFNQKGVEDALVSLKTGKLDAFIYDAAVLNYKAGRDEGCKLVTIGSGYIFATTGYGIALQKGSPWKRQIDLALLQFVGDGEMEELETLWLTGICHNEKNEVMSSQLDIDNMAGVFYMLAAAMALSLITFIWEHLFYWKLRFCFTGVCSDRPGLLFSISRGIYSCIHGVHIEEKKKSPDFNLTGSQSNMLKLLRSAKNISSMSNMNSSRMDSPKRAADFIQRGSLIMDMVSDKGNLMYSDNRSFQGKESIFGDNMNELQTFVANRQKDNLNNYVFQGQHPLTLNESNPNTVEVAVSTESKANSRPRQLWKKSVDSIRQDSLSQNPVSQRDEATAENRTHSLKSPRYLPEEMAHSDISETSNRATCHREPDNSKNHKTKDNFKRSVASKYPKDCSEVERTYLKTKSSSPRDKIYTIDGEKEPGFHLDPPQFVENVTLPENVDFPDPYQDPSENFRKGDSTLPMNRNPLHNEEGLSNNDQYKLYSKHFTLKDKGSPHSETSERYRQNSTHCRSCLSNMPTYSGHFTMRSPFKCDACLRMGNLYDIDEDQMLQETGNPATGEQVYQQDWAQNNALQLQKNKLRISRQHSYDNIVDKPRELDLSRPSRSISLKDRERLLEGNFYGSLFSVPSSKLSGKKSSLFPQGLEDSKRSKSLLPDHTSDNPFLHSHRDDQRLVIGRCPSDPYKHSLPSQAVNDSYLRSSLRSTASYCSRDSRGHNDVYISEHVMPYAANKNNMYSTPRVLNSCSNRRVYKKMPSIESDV

GluN2C = GluN2C (Homo sapiens (Human), UniProt Q14957); assay: Two electrode voltage-clamp recordings, single concentration, GluN2C; type: cell-based; conditions: pH 6.9
GluN2C, sequence (Q14957 20-1233, other chains not shown): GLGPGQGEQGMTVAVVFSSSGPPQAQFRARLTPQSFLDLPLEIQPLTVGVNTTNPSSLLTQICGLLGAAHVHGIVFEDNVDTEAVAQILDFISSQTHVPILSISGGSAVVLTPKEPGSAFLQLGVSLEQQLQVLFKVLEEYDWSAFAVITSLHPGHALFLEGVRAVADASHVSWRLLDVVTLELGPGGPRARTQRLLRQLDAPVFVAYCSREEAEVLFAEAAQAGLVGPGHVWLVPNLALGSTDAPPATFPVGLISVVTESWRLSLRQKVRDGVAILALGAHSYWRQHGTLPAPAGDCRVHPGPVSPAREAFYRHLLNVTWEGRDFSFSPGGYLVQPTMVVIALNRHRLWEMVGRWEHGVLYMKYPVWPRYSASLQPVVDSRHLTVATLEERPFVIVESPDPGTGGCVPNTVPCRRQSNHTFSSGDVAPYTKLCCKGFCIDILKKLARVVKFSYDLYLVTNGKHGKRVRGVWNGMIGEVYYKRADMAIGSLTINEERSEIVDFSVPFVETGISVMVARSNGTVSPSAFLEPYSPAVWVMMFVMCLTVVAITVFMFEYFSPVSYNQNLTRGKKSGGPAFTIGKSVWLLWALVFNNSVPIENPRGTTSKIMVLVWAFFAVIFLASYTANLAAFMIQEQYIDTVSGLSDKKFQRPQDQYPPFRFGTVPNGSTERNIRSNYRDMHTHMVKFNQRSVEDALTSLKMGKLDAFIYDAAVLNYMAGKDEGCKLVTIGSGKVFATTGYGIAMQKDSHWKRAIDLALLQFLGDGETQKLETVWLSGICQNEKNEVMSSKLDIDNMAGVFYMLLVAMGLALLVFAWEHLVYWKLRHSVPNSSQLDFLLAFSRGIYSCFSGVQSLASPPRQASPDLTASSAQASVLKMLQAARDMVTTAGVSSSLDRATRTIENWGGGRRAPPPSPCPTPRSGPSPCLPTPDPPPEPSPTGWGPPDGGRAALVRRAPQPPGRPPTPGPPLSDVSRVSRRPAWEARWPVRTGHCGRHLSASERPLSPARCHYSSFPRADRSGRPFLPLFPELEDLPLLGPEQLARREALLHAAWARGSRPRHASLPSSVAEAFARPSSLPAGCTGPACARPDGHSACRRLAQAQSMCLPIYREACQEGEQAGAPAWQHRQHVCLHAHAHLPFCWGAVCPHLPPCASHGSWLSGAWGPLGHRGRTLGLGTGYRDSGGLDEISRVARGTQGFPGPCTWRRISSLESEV

[1] = Liver microsome stability, human; type: in vitro ADME; conditions: 1 μM, with cofactors, one-hour incubation at 37° C.
Method: Metabolic stability was assessed using human and mouse liver microsomes (Xenotech, USA). The final composition of the assay included 1 μM of the test compound or reference standards (imipramine and diclofenac sodium) prepared from DMSO or acetonitrile stock, so that the final concentration of DMSO and acetonitrile was 0.2% and 0.8%, respectively. The test compound was incubated with 0.5 mg/mL microsomal protein without (100 mM potassium phosphate buffer alone, pH 7.4) or with cofactors (5.0 mM glucose-6-phosphate, 0.06 U glucose-6-phosphate dehydrogenase, 2.0 mM MgCl2, 1.0 mM NADP^+/NADPH). The test compound and standards were incubated at 37° C. with human and mouse liver microsomes; aliquots of the reaction mixture (100 μL) were removed at 0, 5, 15, 30, 60 and 120 min. The reaction in the aliquots was stopped by the addition of 2.5 mL tert-butyl methyl ether and the samples were subjected to shaking for 15 min. […] The percent of the test compound remaining after the specified incubation period was calculated with respect to the peak areas of the test compound at time 0 min.
The compound and standards were incubated with human and mouse liver microsomes with or without cofactors, and the samples were extracted and analyzed using LC-MS/MS, as described above.

[2] = Plasma protein binding, rapid equilibrium dialysis, mouse; type: in vitro ADME; conditions: n=2
Method: Plasma protein binding was performed with a rapid equilibrium dialysis (RED) device containing dialysis membrane with a molecular weight cut-off of 8,000 Daltons according to the manufacturer's instructions (ThermoFisher, USA). The plasma samples (pH 7.4) and the test compound solution (1 or 5 μM) or reference standards (Warfarin and Propranolol, 10 μM) were combined (DMSO final conc 0.1%). 300 μL of this spiked plasma sample was added to the sample chamber, and 500 μL of blank PBS buffer (pH 7.4) was added into the buffer chamber. The RED device was sealed with adhesive film and then incubated at 37° C. with shaking at 300 rpm for 4 h. Following incubation, an aliquot (50 μL) was removed from each well (spiked plasma and buffer side) and diluted with equal volume of the corresponding opposite matrix (blank buffer or blank plasma) to nullify the matrix effect, and then extracted for analysis by LC-MS/MS. The amount of free material was determined by:
% Free=(LC-MS/MS peak area of test compound in buffer side/LC-MS/MS peak area of test compound in plasma side)×100%

5-HT2A = 5-HT2A (Homo sapiens (Human), UniProt P28223); assay: Functional agonism/antagonism, IP1 HTRF in HEK293 cells; type: cell-based
5-HT2A, sequence (P28223 whole entry): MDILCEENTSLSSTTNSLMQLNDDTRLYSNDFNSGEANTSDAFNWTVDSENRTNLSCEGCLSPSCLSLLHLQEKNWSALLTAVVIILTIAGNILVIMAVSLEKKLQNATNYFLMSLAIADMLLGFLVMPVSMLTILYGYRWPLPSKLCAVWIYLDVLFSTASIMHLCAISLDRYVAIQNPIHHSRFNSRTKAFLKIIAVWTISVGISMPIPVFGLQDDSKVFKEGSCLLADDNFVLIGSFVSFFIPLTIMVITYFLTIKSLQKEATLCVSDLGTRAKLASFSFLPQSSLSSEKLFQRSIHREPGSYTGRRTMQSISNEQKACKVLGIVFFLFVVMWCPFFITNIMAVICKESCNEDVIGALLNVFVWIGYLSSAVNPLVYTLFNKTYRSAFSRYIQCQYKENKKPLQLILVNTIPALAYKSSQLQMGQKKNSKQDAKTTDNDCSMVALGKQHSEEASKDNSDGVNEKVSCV
Method: These receptor targets include the 5-HT2A receptor, the functional study of which was performed at pH 7.4 (Porter, et al., Br J Pharmacol, 1999, 128:13-20; CEREP, France). […] Separate wells stimulated with 10 μM serotonin served as a positive control. […] The cells were stimulated with 100 nM serotonin.

[3] = % current remaining after 3 μM compound

human GluN1/GluN2B, sequence (Q13224 27-1484, other chains not shown): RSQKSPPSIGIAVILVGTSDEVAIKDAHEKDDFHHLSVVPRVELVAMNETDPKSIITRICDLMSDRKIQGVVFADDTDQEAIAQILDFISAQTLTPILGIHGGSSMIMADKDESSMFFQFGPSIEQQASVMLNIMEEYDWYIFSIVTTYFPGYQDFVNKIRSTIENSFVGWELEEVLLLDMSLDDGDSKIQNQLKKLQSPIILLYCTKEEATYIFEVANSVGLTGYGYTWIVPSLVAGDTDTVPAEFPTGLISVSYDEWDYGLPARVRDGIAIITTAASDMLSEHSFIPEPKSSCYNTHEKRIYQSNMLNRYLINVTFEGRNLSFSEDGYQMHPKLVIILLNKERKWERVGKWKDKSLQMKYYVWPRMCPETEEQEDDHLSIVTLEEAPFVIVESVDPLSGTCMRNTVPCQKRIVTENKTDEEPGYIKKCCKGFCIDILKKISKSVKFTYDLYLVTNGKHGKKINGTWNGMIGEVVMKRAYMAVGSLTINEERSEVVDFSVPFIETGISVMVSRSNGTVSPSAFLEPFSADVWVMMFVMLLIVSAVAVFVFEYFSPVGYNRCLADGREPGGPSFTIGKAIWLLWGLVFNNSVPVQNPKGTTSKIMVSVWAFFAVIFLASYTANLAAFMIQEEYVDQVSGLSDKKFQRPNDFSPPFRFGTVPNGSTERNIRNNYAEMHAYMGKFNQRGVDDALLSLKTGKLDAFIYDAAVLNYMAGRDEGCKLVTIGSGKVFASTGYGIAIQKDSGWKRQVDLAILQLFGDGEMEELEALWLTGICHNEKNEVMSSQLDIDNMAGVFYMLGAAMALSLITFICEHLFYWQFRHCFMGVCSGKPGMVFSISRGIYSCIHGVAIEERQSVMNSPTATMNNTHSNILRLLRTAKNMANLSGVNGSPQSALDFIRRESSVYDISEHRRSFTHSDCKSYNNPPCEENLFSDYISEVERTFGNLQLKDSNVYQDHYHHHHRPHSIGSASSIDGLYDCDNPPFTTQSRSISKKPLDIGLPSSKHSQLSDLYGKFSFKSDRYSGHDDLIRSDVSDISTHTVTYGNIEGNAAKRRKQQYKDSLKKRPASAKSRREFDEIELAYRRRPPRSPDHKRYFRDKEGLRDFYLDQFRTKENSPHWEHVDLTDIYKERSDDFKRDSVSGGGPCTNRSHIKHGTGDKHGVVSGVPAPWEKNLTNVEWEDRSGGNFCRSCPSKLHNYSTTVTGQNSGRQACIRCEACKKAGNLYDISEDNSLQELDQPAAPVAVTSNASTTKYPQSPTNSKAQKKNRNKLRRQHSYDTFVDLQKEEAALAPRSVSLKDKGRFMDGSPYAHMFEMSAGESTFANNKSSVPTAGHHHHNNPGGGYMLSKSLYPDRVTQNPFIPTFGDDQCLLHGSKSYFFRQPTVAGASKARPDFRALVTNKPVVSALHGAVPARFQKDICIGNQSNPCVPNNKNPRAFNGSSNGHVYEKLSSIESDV

O=C1CCc2cc(OC[C@H](O)CN3CCN(c4ccc(C(F)(F)F)cc4)CC3)ccc2N1 [NP10679]
IC50 (human GluN1/GluN2B; pH 6.9, read-out: IC50 (μM) pH 6.9): 0.023 µM | IC50 (human GluN1/GluN2B; pH 6.9, read-out: IC50 value at pH 6.9): 0.023 µM | IC50 (human GluN1/GluN2B; pH 7.6, read-out: IC50 (μM) pH 7.6): 0.142 µM | IC50 (human GluN1/GluN2B; pH 7.6, read-out: IC50 value at pH 7.6): 0.142 µM | pH Boost (human GluN1/GluN2B; ratio of IC50 at pH 7.6 to IC50 at pH 6.9): 6.2 | off-target inhibition against GluN2A (GluN2A; 3 μM): no noticeable off-target inhibition | GluN2A % residual (GluN2A; [3]): 99.0 (pH 6.9) % | off-target inhibition against GluN2C (GluN2C; 3 μM): no noticeable off-target inhibition | GluN2C % residual (GluN2C; [3]): 100.1 (pH 6.9) % | percent remaining in human liver microsomes [1]: 72% | bound to mouse plasma proteins [2]: 98.2% | functional agonism or antagonism at 5-HT2A (5-HT2A; pH 7.4): behaved as an antagonist | IC50 (5-HT2A; pH 7.4, antagonism vs 100 nM serotonin): 1.71 µM
